Laboratory results reported in PMC9232105, “S-Adenosylmethionine–responsive cystathionine β-synthase modulates sulfur metabolism and redox balance in Mycobacterium tuberculosis” (Science Advances, 2022).

What was measured:
[1] = molecular target: T1, cystathionine β-synthase (MtbCbs, Rv1077) (Mycobacterium tuberculosis, UniProt P9WP51); experiment: cryo-EM ([…] Å) with SAM + Ser; cystathionine formation by acid-ninhydrin and LC-MS/MS; type: binding; design: gene cbs; full-length WT MtbCbs
[2] = molecular target: T1, cystathionine β-synthase (MtbCbs, Rv1077); experiment: acid-ninhydrin and LC-MS/MS cystathionine formation; lead acetate kinetics with Cys; type: biochemical; design: gene cbs; full-length WT MtbCbs
[3] = molecular target: T1, cystathionine β-synthase (MtbCbs, Rv1077); type: biochemical; design: gene cbs; full-length WT MtbCbs
[4] = molecular target: T1, cystathionine β-synthase (MtbCbs, Rv1077); experiment: biochemical; type: binding; design: gene cbs; full-length WT MtbCbs, C-terminal 6×His
[5] = molecular target: the molecule itself; experiment: SEC + SEC-MALS

With N[C@@H](CO)C(=O)O [L-serine] the “cryo-EM (4.25 Å) with SAM + Ser; cystathionine formation by acid-ninhydrin and L” value [1] was “formation of external aldimine/aminoacrylate at the active site, which indicates association of Ser with PLP”.

NC(CCS)C(=O)O [L-Hcys] was tested, and the “acid-ninhydrin and LC-MS/MS cystathionine formation; lead acetate kinetics with” value [2] was “MtbCbs produces Cysth from Ser + Hcys and Cys + Hcys”.

N[C@@H](CS)C(=O)O [L-cysteine] was tested, and the “lead acetate H2S assay with steady-state kinetics; LC-MS/MS of lanthionine” value [3] was “lead-acetate assay confirmed that MtbCbs generates H2S using Cys or Hcys + Cys but not from Hcys alone”.

C[S+](CC[C@H](N)C(=O)[O-])C[C@H]1O[C@@H](n2cnc3c(N)ncnc32)[C@H](O)[C@@H]1O (some centres unmarked) [S-adenosylmethionine] gave a Kd [4] of roughly 128 µM.

B1: Mycobacterium tuberculosis cystathionine β-synthase (MtbCbs, Rv1077), wild type (enzyme)
chain: MRIAQHISELIGGTPLVRLNSVVPDGAGTVAAKVEYLNPGGSSKDRIAVKMIEAAEASGQLKPGGTIVEPTSGNTGVGLALVAQRRGYKCVFVCPDKVSEDKRNVLIAYGAEVVVCPTAVPPHDPASYYSVSDRLVRDIDGAWKPDQYANPEGPASHYVTTGPEIWADTEGKVTHFVAGIGTGGTITGAGRYLKEVSGGRVRIVGADPEGSVYSGGAGRPYLVEGVGEDFWPAAYDPSVPDEIIAVSDSDSFDMTRRLAREEAMLVGGSCGMAVVAALKVAEEAGPDALIVVLLPDGGRGYMSKIFNDAWMSSYGFLRSRLDGSTEQSTVGDVLRRKSGALPALVHTHPSETVRDAIGILREYGVSQMPVVGAEPPVMAGEVAGSVSERELLSAVFEGRAKLADAVSAHMSPPLRMIGAGELVSAAGKALRDWDALMVVEEGKPVGVITRYDLLGFLSEGAGRR
modifications: PLP bound to K44 (internal aldimine)
notes: also called WT MtbCbs; native MtbCbs
B1 was tested, and the “stoichiometry N” value [5] was 4.
